The nature of data set [1]: Stability of the compound in fetal bovine serum assessed as drug degradation incubated for 17 hrs by RP-HPLC analysis. In kind it is ADME, cell-free, Bos taurus. The conditions noted are these: cattle, read-out: Drug degradation.
For data set [2], the target named is Tyrosine-protein kinase JAK2 (Homo sapiens, UniProt O60674). Description: Binding affinity to His-tagged JAK2 catalytic domain (826 to 1132 residues) (unknown origin) assessed as dissociation constant incubated for 30 mins by MST analysis.
Data set [3] can be described thus: Stability of the compound in fetal bovine serum incubated for 42 hrs by RP-HPLC analysis. In kind it is ADME, cell-free, Bos taurus. The conditions noted are these: cattle.
Data set [4] is described as follows: Proteolytic stability of the compound in fetal bovine serum assessed as drug degradation incubated for 42 hrs by RP-HPLC analysis. In kind it is ADME, cell-free, Bos taurus. The conditions noted are these: cattle.
Data set [5] is described as follows: Stability of the compound in fetal bovine serum assessed as drug degradation incubated for 42 hrs by RP-HPLC analysis. In kind it is ADME, cell-free, Bos taurus. The conditions noted are these: cattle, read-out: Drug degradation.
Data set [6] in a line: Proteolytic stability of the compound in fetal bovine serum assessed as drug degradation incubated for 17 hrs by RP-HPLC analysis. In kind it is ADME, cell-free, Bos taurus. The conditions noted are these: cattle, read-out: Drug degradation.

pKd: −log10 of the molar value. Active and inactive are the calls of the source. No cut-off for these calls is given here. Positions of bridges follow the written chain, without caps; N, C: chain ends. Non-standard residues stand in square brackets, D forms with d. Residues, ends and D or L forms follow the SMILES beside them. *: point of attachment. 1Nal = N[C@@H](Cc1cccc2ccccc12)C(=O)O; hArg = N=C(N)NCCCC[C@H](N)C(=O)O; Cit = NC(=O)NCCC[C@H](N)C(=O)O; Orn = NCCC[C@H](N)C(=O)O; Ac5c = NC1(C(=O)O)CCCC1; Dap = NC[C@H](N)C(=O)O; Acm = CC(=O)NC*

As usually defined, the pKd is the Kd on a negative log10 scale, so that one unit is a factor of ten.

Tyrosine-protein kinase JAK2, sequence (O60674 whole entry, the tested form may be a part): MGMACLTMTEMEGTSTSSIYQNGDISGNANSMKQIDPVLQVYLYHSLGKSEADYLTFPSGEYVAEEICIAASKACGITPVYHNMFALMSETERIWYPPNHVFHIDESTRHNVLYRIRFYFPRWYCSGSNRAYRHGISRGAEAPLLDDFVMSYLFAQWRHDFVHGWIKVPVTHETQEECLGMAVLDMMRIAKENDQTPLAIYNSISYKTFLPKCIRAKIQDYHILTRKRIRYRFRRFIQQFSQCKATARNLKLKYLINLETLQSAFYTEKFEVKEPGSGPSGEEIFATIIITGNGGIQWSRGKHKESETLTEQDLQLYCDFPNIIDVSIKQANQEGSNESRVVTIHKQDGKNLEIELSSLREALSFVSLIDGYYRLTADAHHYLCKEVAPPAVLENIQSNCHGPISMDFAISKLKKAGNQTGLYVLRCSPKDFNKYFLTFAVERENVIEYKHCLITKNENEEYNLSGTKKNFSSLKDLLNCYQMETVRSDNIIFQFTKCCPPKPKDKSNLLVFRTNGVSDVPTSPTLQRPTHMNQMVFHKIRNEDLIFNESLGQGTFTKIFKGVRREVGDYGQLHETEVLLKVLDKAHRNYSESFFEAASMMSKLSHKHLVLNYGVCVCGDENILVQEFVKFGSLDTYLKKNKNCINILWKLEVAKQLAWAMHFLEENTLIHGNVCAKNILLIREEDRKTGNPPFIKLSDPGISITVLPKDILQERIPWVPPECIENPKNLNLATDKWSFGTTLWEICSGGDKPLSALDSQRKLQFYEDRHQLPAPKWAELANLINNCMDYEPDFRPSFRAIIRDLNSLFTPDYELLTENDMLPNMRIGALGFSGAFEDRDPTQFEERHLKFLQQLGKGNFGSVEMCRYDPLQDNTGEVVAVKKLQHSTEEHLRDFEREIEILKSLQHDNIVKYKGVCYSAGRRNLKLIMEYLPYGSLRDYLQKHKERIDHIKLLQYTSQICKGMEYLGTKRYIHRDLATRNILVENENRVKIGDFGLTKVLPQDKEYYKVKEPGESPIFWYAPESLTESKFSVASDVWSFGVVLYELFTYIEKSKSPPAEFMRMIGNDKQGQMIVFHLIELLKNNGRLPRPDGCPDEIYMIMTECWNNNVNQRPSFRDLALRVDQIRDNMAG

For the molecule `CC(=O)NCSC[C@@H]1NC(=O)[C@H]([C@@H](C)O)NC(=O)[C@@H](NC(C)=O)CC(=O)NCCCC[C@@H](C(=O)N[C@@H](Cc2c[nH]cn2)C(=O)O)NC(=O)[C@H](CCCNC(=N)N)NC(=O)[C@H](Cc2cccc3ccccc23)NC(=O)[C@H]([C@@H](C)O)NC(=O)[C@H](CCC(N)=O)NC(=O)[C@H](CCCNC(=N)N)NC1=O` (Ac-DTC(Acm)RQT[1Nal]RKH-OH; lactam 1-9), the metabolised at 17 h in data set [1] came out at 30%. For the same molecule, in data set [2], the pKd was 4.44.
As for `CC(=O)NCSC[C@@H]1NC(=O)[C@H]([C@@H](C)O)NC(=O)[C@@H](NC(C)=O)CC(=O)NC[C@@H](C(=O)N[C@@H](Cc2c[nH]cn2)C(=O)O)NC(=O)[C@H](CCCNC(=N)N)NC(=O)[C@H](Cc2cccc3ccccc23)NC(=O)[C@H]([C@@H](C)O)NC(=O)[C@H](CCC(N)=O)NC(=O)[C@H](CCCNC(=N)N)NC1=O` (Ac-DTC(Acm)RQT[1Nal]R[Dap]H-OH; lactam 1-9), the outcome in data set [2] was inactive. Also, the Stability entry in data set [3] was “Unstable”.
Take `CC(=O)NCSC[C@@H]1NC(=O)[C@H]([C@@H](C)O)NC(=O)[C@@H](NC(C)=O)CC(=O)NCCCC[C@@H](C(=O)N[C@@H](Cc2c[nH]cn2)C(=O)O)NC(=O)[C@H](CCCNC(=N)N)NC(=O)[C@H](Cc2cccc3ccccc23)NC(=O)C2(CCCC2)NC(=O)[C@H](CCC(N)=O)NC(=O)[C@H](CCCNC(=N)N)NC1=O` (Ac-DTC(Acm)RQ[Ac5c][1Nal]RKH-OH; lactam 1-9): in data set [4], the Stability entry is “Stable”. In data set [2], the pKd was 3.92.
For the molecule `CC(=O)NCSC[C@@H]1NC(=O)[C@H]([C@@H](C)O)NC(=O)[C@@H](NC(C)=O)CC(=O)NCCCC[C@@H](C(=O)N[C@@H](Cc2c[nH]cn2)C(=O)O)NC(=O)[C@H](CCCNC(=N)N)NC(=O)[C@H](Cc2cccc3ccccc23)NC(=O)[C@H]([C@@H](C)O)NC(=O)[C@H](CCCNC(N)=O)NC(=O)[C@H](CCCNC(=N)N)NC1=O` (Ac-DTC(Acm)R[Cit]T[1Nal]RKH-OH; lactam 1-9), the metabolised at 17 h in data set [1] is 50%. The pKd in data set [2] was 4.44.
For `CC(=O)NCSC[C@@H]1NC(=O)[C@H]([C@@H](C)O)NC(=O)[C@@H](NC(C)=O)CC(=O)NCCCC[C@@H](C(=O)N[C@@H](Cc2c[nH]cn2)C(=O)O)NC(=O)[C@H](CCCCNC(=N)N)NC(=O)[C@H](Cc2cccc3ccccc23)NC(=O)[C@H]([C@@H](C)O)NC(=O)[C@H](CCCNC(N)=O)NC(=O)[C@H](CCCNC(=N)N)NC1=O` (Ac-DTC(Acm)R[Cit]T[1Nal][hArg]KH-OH; lactam 1-9), the pKd in data set [2] is 4.51. Further, in data set [3], the Stability entry was “Stable”.
For the molecule `CC(=O)NCSC[C@@H]1NC(=O)[C@H]([C@@H](C)O)NC(=O)[C@@H](NC(C)=O)CC(=O)NCCCC[C@@H](C(=O)N[C@@H](Cc2c[nH]cn2)C(=O)O)NC(=O)[C@H](CCCNC(=N)N)NC(=O)[C@H](Cc2cccc3ccccc23)NC(=O)[C@H]([C@@H](C)O)NC(=O)[C@H](CCCN)NC(=O)[C@H](CCCNC(=N)N)NC1=O` (Ac-DTC(Acm)R[Orn]T[1Nal]RKH-OH; lactam 1-9), the metabolised at 17 h in data set [1] was determined as 30%. For the same molecule, in data set [2], the pKd was 4.49. Also, in data set [5], the metabolised at 42 h was found to be 100%.
On to `CC(=O)NCSC[C@@H]1NC(=O)[C@H]([C@@H](C)O)NC(=O)[C@@H](NC(C)=O)CC(=O)NCCCC[C@@H](C(=O)N[C@@H](Cc2c[nH]cn2)C(=O)O)NC(=O)[C@H](CCCCNC(=N)N)NC(=O)[C@H](Cc2cccc3ccccc23)NC(=O)[C@H]([C@@H](C)O)NC(=O)[C@H](CCCN)NC(=O)[C@H](CCCNC(=N)N)NC1=O` (Ac-DTC(Acm)R[Orn]T[1Nal][hArg]KH-OH; lactam 1-9), for which, in data set [2], the pKd is 4.41. Moreover, the Stability result in data set [3] was “Stable”.
Take `CC(=O)NCSC[C@@H]1NC(=O)C2(CCCC2)NC(=O)[C@@H](NC(C)=O)CC(=O)NCCCC[C@@H](C(=O)N[C@@H](Cc2c[nH]cn2)C(=O)O)NC(=O)[C@H](CCCNC(=N)N)NC(=O)[C@H](Cc2cccc3ccccc23)NC(=O)[C@H]([C@@H](C)O)NC(=O)[C@H](CCC(N)=O)NC(=O)[C@H](CCCNC(=N)N)NC1=O` (Ac-D[Ac5c]C(Acm)RQT[1Nal]RKH-OH; lactam 1-9): the Stability entry in data set [4] is “Stable”. For the same molecule, the pKd in data set [2] is 3.59.
Consider `CC(=O)NCSC[C@@H]1NC(=O)[C@H]([C@@H](C)O)NC(=O)[C@@H](NC(C)=O)CCC(=O)NCCCC[C@@H](C(=O)N[C@@H](Cc2c[nH]cn2)C(=O)O)NC(=O)[C@H](CCCNC(=N)N)NC(=O)[C@H](Cc2cccc3ccccc23)NC(=O)[C@H]([C@@H](C)O)NC(=O)[C@H](CCC(N)=O)NC(=O)[C@H](CCCNC(=N)N)NC1=O` (Ac-ETC(Acm)RQT[1Nal]RKH-OH; lactam 1-9), for which, in data set [2], the pKd is 4.28. In addition, the Stability result in data set [3] is listed as “Stable”.
For `CC(=O)NCSC[C@@H]1NC(=O)[C@H]([C@@H](C)O)NC(=O)[C@@H](NC(C)=O)CCC(=O)NC[C@@H](C(=O)N[C@@H](Cc2c[nH]cn2)C(=O)O)NC(=O)[C@H](CCCNC(=N)N)NC(=O)[C@H](Cc2cccc3ccccc23)NC(=O)[C@H]([C@@H](C)O)NC(=O)[C@H](CCC(N)=O)NC(=O)[C@H](CCCNC(=N)N)NC1=O` (Ac-ETC(Acm)RQT[1Nal]R[Dap]H-OH; lactam 1-9), in that order: 4.15 and “Stable”.
For the molecule `CC(=O)NCSC[C@@H]1NC(=O)[C@H]([C@@H](C)O)NC(=O)[C@@H](NC(C)=O)CCC(=O)NCCC[C@@H](C(=O)N[C@@H](Cc2c[nH]cn2)C(=O)O)NC(=O)[C@H](CCCNC(=N)N)NC(=O)[C@H](Cc2cccc3ccccc23)NC(=O)[C@H]([C@@H](C)O)NC(=O)[C@H](CCC(N)=O)NC(=O)[C@H](CCCNC(=N)N)NC1=O` (Ac-ETC(Acm)RQT[1Nal]R[Orn]H-OH; lactam 1-9), the outcome in data set [2] was inactive. In addition, the Stability result in data set [3] is given as “Unstable”.
For the molecule `CC(=O)NCSC[C@@H]1NC(=O)[C@H]([C@@H](C)O)NC(=O)[C@@H](NC(C)=O)CCCCNC(=O)C[C@@H](C(=O)N[C@@H](Cc2c[nH]cn2)C(=O)O)NC(=O)[C@H](CCCNC(=N)N)NC(=O)[C@H](Cc2cccc3ccccc23)NC(=O)[C@H]([C@@H](C)O)NC(=O)[C@H](CCC(N)=O)NC(=O)[C@H](CCCNC(=N)N)NC1=O` (Ac-KTC(Acm)RQT[1Nal]RDH-OH; lactam 1-9), the metabolised at 17 h in data set [6] came to 100%. Also, in data set [2], the pKd was 3.80.

Source of the values: ChEMBL document CHEMBL5352432, “Ad-hoc modifications of cyclic mimetics of SOCS1 protein: Structural and functional insights” (Eur J Med Chem, 2022).
